In patent US20260284065A1, “PHARMACEUTICAL COMPOSITION FOR PREVENTION OR TREATMENT OF CANCER FOR OVERCOMING RESISTANCE TO IMMUNE CHECKPOINT INHIBITORS” (AJOU UNIVERSITY INDUSTRY-ACADEMIC COOPERATION FOUNDATION, priority 2023, published 2026):

Tested on: mouse gastric cancer cell line YTN16
Experiment: YTN16 syngeneic mouse model: subcutaneous tumor size and tumor weight
Assay type: in vivo
Protocol: The experiment was conducted by dividing the mice into a control group (Control), a group administered with Comparative Example 1 (Anti-PD-1), a group administered with Comparative Example 2 (CCB-3233), and a group administered with Example 1 (Anti-PD-1+CCB-3233), and eight mouse models were used for each group.
Comparative Example 1 (Anti-PD-1) was diluted in 1×PBS at a concentration of 10 mg/kg and administered intraperitoneally to the mice, Comparative Example 2 (CCB-3233) was orally administered to the mice at a concentration of 50 mg/kg by dissolving 5% DMSO+5% CMC-NA in 1×PBS, and Example 1 (Anti-PD-1+CCB-3233) was diluted and prepared in different solvents as in Comparative Examples 1 and 2, and then administered sequentially.

COc1cc2c(Oc3ccc(Nc4nn(C)cc4C(=O)NC4CCCCC4)cc3F)ccnc2cc1OCCCN1CCOCC1 [Comparative Example 2]
therapeutic effect of the immune checkpoint inhibitor (CCB-3233 administered together with the immune checkpoint inhibitor to YTN 16 syngeneic mice resistant to the immune checkpoint inhibitor): enhanced | tumor weight (FIG. 2) (YTN16 syngeneic mice, anti-PD-1 10 mg/kg intraperitoneally, CCB-3233 50 mg/kg orally, compared between groups): no significant difference in tumor weight from the control group
